Assay results published in patent US20220204456A1, “COMPOUND FOR TREATING AUTOIMMUNE SKIN DISEASES CAUSED BY INFLAMMATION, AND USE THEREOF” (GenEros Biopharma Ltd., priority 2019, published 2022).
Entries after “also recorded” stand apart in the source; their conditions may differ.

Tests used:
[1] = Animal body weight in psoriasis model, Example 1; format: in vivo, BALB/c mice; conditions: for Statistical significance analysis of body weight: vs vehicle control group, t-test, DEX cream 70 mg external
Experimental: (§1) Female BALB/c mice (purchased from Shanghai SLACK Laboratory Animal Co., Ltd, administered at 6 weeks of age) were randomly divided into groups after adapting to the environment. Except for the normal control group, the rest of the animals received imiquimod ointment (5%) externally to induce the establishment of a psoriasis model. Specifically, the mice were shaved off same area of the back hair and applied with 62.5 mg of imiquimod ointment daily for seven consecutive days. Animals received different treatment programs, weighed daily, orally or externally applied with drugs once, and recorded with disease progression score.
(§2) Both the vehicle control group and the Nib1 treatment group received oral gavage of the same volume of drugs, formulated with 30% PEG300, and the Nib1 group was given a dose of 10 mg/kg. Dexamethasone ointment was used as a positive treatment drug and received 70 mg smear treatment once a day. The disease progression score is evaluated on a scale of 0-4 based on three indicators, rash, peeling, and thickening (0: no symptoms; 1: mild symptoms; 2: moderate symptoms; 3: significant symptoms; 4: very significant symptoms). At the end of the experiment, the animals were sacrificed, and pathological section analysis was performed on the skin samples of the back lesions.

[2] = Animal body weight in psoriasis model, Example 2 (external application); format: in vivo, BALB/c mice; conditions: 70 mg external once a day for 7 days
Experimental: After adapting to the environment, female BALB/c mice were randomly divided into groups. Except for the normal control group, the rest received external treatment with imiquimod ointment (5%) to induce the establishment of a psoriasis model. Specifically, the mice were shaved off the same area (2×3 cm) of back hair and applied with 62.5 mg ointment daily for seven consecutive days. The animals received different treatments, weighed daily, received 70 mg smear treatment once, and recorded with disease progression score. The disease progression score is evaluated on a scale of 0-4 based on three indicators, rash, peeling, and thickening (0: no symptoms; 1: mild symptoms; 2: moderate symptoms; 3: significant symptoms; 4: very significant symptoms). At the end of the experiment, the animals were sacrificed, and pathological section analysis was performed on the skin samples of the back lesions.

psoriasis model [3] = experiment: Clinical scoring (rash, peeling, thickening) in imiquimod-induced psoriasis model, Example 1; format: in vivo, BALB/c mice; conditions: for statistical significance analysis of rash scores / statistical significance analysis of skin thickening scores / statistical significance analysis of total clinical scores / statistical significance analysis of peeling scores: vs vehicle control group, t-test, Nib1 10 mg/kg oral, DEX cream 70 mg external
Experimental: as §1, §2
The clinical scoring of three indicators including skin rash, peeling and thickening were recorded and shown as statistical average value and ±standard error by day.

[4] = J Neurol Neurosurg Psychiatry 1986;49:791-795; cited from earlier work
psoriasis model [5] = experiment: Pathological section analysis and scoring of back lesion skin, Example 1; format: in vivo, BALB/c mice; conditions: Nib1 10 mg/kg oral
Experimental: as §2
The pathological sections of animal skin were stained with eosin. Three samples were selected for each group.

[6] = Nib1 10 mg/kg oral once a day, vs model group

Structure (SMILES): C[C@@H]1C[C@H]2[C@@H]3CCC4=CC(=O)C=C[C@]4(C)[C@@]3(F)[C@@H](O)C[C@]2(C)[C@@]1(O)C(=O)CO [DEX, Dexamethasone]
- body weights of the animals ([1]; Example 1, 7 days, Nib1 10 mg/kg oral, dexamethasone ointment 70 mg topical, once a day): significantly reduced
- Statistical significance analysis of body weight ([1]; day 1, Nib1 10 mg/kg oral): * (* p < 0.05)
- Statistical significance analysis of body weight ([1]; day 4, Nib1 10 mg/kg oral): * (* p < 0.05)
- Statistical significance analysis of body weight ([1]; day 5, Nib1 10 mg/kg oral): ** (** p < 0.01)
- Statistical significance analysis of body weight ([1]; day 6, Nib1 10 mg/kg oral): **** (**** p < 0.0001)
- Statistical significance analysis of body weight ([1]; day 7, Nib1 10 mg/kg oral): **** (**** p < 0.0001)
- weight loss [2]: more than 25%
- statistical significance analysis of rash scores (psoriasis model [3]; day 1): ** (** p < 0.01)
- statistical significance analysis of skin thickening scores (psoriasis model [3]; day 1): **** (**** p < 0.0001)
- statistical significance analysis of total clinical scores (psoriasis model [3]; day 1): **** (**** p < 0.0001)
- statistical significance analysis of rash scores (psoriasis model [3]; day 2): **** (**** p < 0.0001)
- statistical significance analysis of skin thickening scores (psoriasis model [3]; day 2): **** (**** p < 0.0001)
- statistical significance analysis of total clinical scores (psoriasis model [3]; day 2): **** (**** p < 0.0001)
- statistical significance analysis of peeling scores (psoriasis model [3]; day 3): **** (**** p < 0.0001)
- statistical significance analysis of rash scores (psoriasis model [3]; day 3): **** (**** p < 0.0001)
- statistical significance analysis of skin thickening scores (psoriasis model [3]; day 3): **** (**** p < 0.0001)
- statistical significance analysis of total clinical scores (psoriasis model [3]; day 3): **** (**** p < 0.0001)
- statistical significance analysis of peeling scores (psoriasis model [3]; day 4): **** (**** p < 0.0001)
- statistical significance analysis of rash scores (psoriasis model [3]; day 4): **** (**** p < 0.0001)
- statistical significance analysis of skin thickening scores (psoriasis model [3]; day 4): **** (**** p < 0.0001)
- statistical significance analysis of total clinical scores (psoriasis model [3]; day 4): **** (**** p < 0.0001)
- statistical significance analysis of peeling scores (psoriasis model [3]; day 5): **** (**** p < 0.0001)
- statistical significance analysis of rash scores (psoriasis model [3]; day 5): **** (**** p < 0.0001)
- statistical significance analysis of skin thickening scores (psoriasis model [3]; day 5): **** (**** p < 0.0001)
- statistical significance analysis of total clinical scores (psoriasis model [3]; day 5): **** (**** p < 0.0001)
- statistical significance analysis of peeling scores (psoriasis model [3]; day 6): **** (**** p < 0.0001)
- statistical significance analysis of rash scores (psoriasis model [3]; day 6): **** (**** p < 0.0001)
- statistical significance analysis of skin thickening scores (psoriasis model [3]; day 6): **** (**** p < 0.0001)
- statistical significance analysis of total clinical scores (psoriasis model [3]; day 6): **** (**** p < 0.0001)
- statistical significance analysis of peeling scores (psoriasis model [3]; day 7): *** (*** p < 0.001)
- statistical significance analysis of rash scores (psoriasis model [3]; day 7): **** (**** p < 0.0001)
- statistical significance analysis of skin thickening scores (psoriasis model [3]; day 7): **** (**** p < 0.0001)
- statistical significance analysis of total clinical scores (psoriasis model [3]; day 7): **** (**** p < 0.0001)

Structure (SMILES): O=c1[nH]c2ccccc2n1C1CCN(CCCC(c2ccc(F)cc2)c2ccc(F)cc2)CC1 [Nib1, Pimozide]
- systemic risks on long-term use [4]: has not shown systemic risks
- toxic and side effect (judged from body weight) ([1]; mouse, in vivo, po, 10 mg/kg): significantly less than that of dexamethasone
- pathological section findings (epidermal hyperplasia, immune cell infiltration) (psoriasis model [5]; stained skin sections, 100x): improve epidermal hyperplasia and reduce immune cell infiltration
- remission effect by pathological section score (psoriasis model [5]; scoring system of Table 2, p<0.01 vs vehicle control, one-way ANOVA): 32.5%
- remission by area under the clinical total score curve (AUC) (psoriasis model [3]; Nib1 10 mg/kg oral once a day for 7 days, compared with the disease model group): 32.2%
- total score of the three clinical indicators (psoriasis model [3]; Nib1 10 mg/kg oral once a day, vs disease model group, 10 mg/kg): significantly lower clinical symptoms than the disease model group; also recorded: significantly reduce the clinical symptoms of psoriasis
- peeling clinical score (psoriasis model [3]; [6]): significantly reduce the peeling phenomenon
- skin thickening clinical score (psoriasis model [3]; [6]): significantly reduced on the 4th, 5th, and 6th days
- rash clinical score (psoriasis model [3]; Nib1 10 mg/kg oral once a day, vs model group, significantly different in the first three days): slightly reduced rash
- statistical significance analysis of rash scores (psoriasis model [3]; day 1): **** (**** p < 0.0001)
- statistical significance analysis of skin thickening scores (psoriasis model [3]; day 1): ** (** p < 0.01)
- statistical significance analysis of total clinical scores (psoriasis model [3]; day 1): **** (**** p < 0.0001)
- statistical significance analysis of rash scores (psoriasis model [3]; day 2): * (* p < 0.05)
- statistical significance analysis of total clinical scores (psoriasis model [3]; day 2): ** (** p < 0.01)
- statistical significance analysis of peeling scores (psoriasis model [3]; day 3): *** (*** p < 0.001)
- statistical significance analysis of rash scores (psoriasis model [3]; day 3): ** (** p < 0.01)
- statistical significance analysis of skin thickening scores (psoriasis model [3]; day 3): * (* p < 0.05)
- statistical significance analysis of total clinical scores (psoriasis model [3]; day 3): **** (**** p < 0.0001)
- statistical significance analysis of peeling scores (psoriasis model [3]; day 4): *** (*** p < 0.001)
- statistical significance analysis of skin thickening scores (psoriasis model [3]; day 4): *** (*** p < 0.001)
- statistical significance analysis of total clinical scores (psoriasis model [3]; day 4): **** (**** p < 0.0001)
- statistical significance analysis of peeling scores (psoriasis model [3]; day 5): **** (**** p < 0.0001)
- statistical significance analysis of skin thickening scores (psoriasis model [3]; day 5): *** (*** p < 0.001)
- statistical significance analysis of total clinical scores (psoriasis model [3]; day 5): *** (*** p < 0.001)
- statistical significance analysis of peeling scores (psoriasis model [3]; day 6): ** (** p < 0.01)
- statistical significance analysis of skin thickening scores (psoriasis model [3]; day 6): ** (** p < 0.01)
- statistical significance analysis of total clinical scores (psoriasis model [3]; day 6): ** (** p < 0.01)
